According to patent publication US20250171417A1, “HETEROCYCLIC DERIVATIVE, AND COMPOSITION AND PHARMACEUTICAL USE THEREOF” (Xizang Haisco Pharmaceutical Co., Ltd., priority 2021, published 2025):

Columns and labels:
[1] = Pharmacokinetic test in rats; assay type: in vivo; details: rat, plasma, po, male SD rats; for bioavailability: i.g. 5 mg/kg vs intravenous 2 mg/kg; for AUC(0-t): i.g. 5 mg/kg
Protocol: Test objective: In this experiment, a single dose of each test compound was administered to SD rats intravenously and intragastrically, and the concentrations of the test compounds in plasma of rats were measured to evaluate the pharmacokinetic characteristics of the test compounds in rats.
Experimental animals: male SD rats, 200-250 g, 6-8 weeks old, 6 rats/compound, purchased from Chengdu Ddossy Experimental Animals Co., Ltd.
Experimental method: on the day of the test, 6 SD rats were randomly grouped according to their body weight; the animals were fasted with water available for 12 to 14 hours one day before the administration of a test compound, and were fed 4 hours after the administration.
Sampling: Before and after the administration, 0.1 mL of blood samples were drawn from the orbits of the animals under isoflurane anesthesia, and placed in an EDTAK2 centrifuge tube. Centrifugation was carried out at 5000 rpm at 4° C. for 10 min, and the plasma was collected.
Time points for plasma collection in IV&PO group: 0, 5 min, 15 min, 30 min, 1 h, 2 h, 4 h, 6 h, 8 h, and 24 h.
Before analysis and detection, all samples were stored at −60° C. The samples were analyzed quantitatively by LC-MS/MS.

[2] = molecular target: T1, AR splice variant 7 (AR-V7) (Homo sapiens, UniProt P10275); test: Degradation experiment on AR splice variant 7 (AR-V7) in 22RV1 cells; assay type: cell-based; details: 24 h
T1 construct: host or cells: 22RV1 prostate cancer cells
T1 sequence (P10275 1-644 isoform P10275-3): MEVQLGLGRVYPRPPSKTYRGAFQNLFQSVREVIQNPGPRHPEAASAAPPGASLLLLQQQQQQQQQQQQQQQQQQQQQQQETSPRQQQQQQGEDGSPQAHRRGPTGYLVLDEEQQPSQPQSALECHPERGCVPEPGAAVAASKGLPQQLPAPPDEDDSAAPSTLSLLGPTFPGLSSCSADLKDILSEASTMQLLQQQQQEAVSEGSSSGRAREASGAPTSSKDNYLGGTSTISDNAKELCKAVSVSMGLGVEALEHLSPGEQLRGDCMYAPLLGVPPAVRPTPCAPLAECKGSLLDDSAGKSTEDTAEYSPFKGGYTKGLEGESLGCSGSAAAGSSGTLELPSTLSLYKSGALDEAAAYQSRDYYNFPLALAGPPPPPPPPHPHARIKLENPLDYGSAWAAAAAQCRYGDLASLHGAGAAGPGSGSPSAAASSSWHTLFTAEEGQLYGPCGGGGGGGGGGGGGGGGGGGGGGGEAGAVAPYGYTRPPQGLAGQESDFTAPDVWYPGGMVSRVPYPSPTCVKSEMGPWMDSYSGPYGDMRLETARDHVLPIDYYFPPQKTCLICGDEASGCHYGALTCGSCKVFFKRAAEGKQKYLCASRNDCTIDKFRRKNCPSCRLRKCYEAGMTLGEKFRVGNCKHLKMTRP
Protocol: Prostate cancer cells 22RV1 were purchased from ATCC, the cell medium was 1640+10% FBS, and the cells were cultured in an incubator at 37° C. under 5% CO2. On day 1, the cells in an exponential phase were collected. With a 1% css-FBS phenol red-free medium, the cell suspension was adjusted to a corresponding concentration and plated into a 6-well plate at 1 mL/well and 300000 cells/well. The next day, a 1% css-FBS phenol-free medium containing the compound to be tested was added, a 1% css-FBS phenol-free medium containing 0.2% DMSO was added to one well as DMSO vehicle control, and the 6-well plate was cultured in an incubator at 37° C. under 5% CO2. After 24 h, the cells were digested with pancreatin and collected into a 1.5 mL centrifuge tube. 15 μL of RIPA lysate (containing 1× protease inhibitor cocktail) was added to each well, and the cells were lysed on ice for 15 min and then centrifuged at 12000 g at 4° C.′ for 10 min. The supernatant protein samples were collected, and protein quantification was performed by a BCA method. AR-V7 was detected using fully automatic protein expression quantitative analysis, which involved diluting the protein to be tested to 2 mg/mL, 4 μL of the diluted protein samples were added to 1 μL of 5× Master Mix (provided in the kit), and the prepared samples were denatured at 95° C. for 5 min and placed on ice for use. The primary antibodies. AR V7 (CST, 19672S) and β-actin (CST, 3700), were diluted with Antibody Diluent II (provided in the kit) at a dilution ratio of 1:10 and 1:500, respectively. The secondary antibody was a mixed goat anti-mouse and goat anti-rabbit secondary antibody in a ratio of 1:1, and the color development solution was a mixed solution of Lumino-S and Peroxide in a ratio of 1:1. The prepared reagents were successively added to an assay plate according to instructions of the kit and detected on an instrument. Western blot band processing was performed using “Compass for SW”, a fully automatic protein expression quantitative analysis software, in which western blot bands were automatically simulated based on signal values. The degradation rate of AR-V7 (4) relative to vehicle control at different compound concentrations was calculated according to formula (4), wherein AR-V7compound was the relative peak area of AR-V7 in the treated group, and AR-V7solvent was the relative peak area of AR-V7 in the vehicle control group.
DC50 calculation: the compound concentration DC50 values at which the degradation rate of AR-V7 was 50% were calculated using Graphpad software and analyzed using log (inhibitor) vs. response-Variable slope (four parameters) function according to formula (4).

[3] = tested on: Prostate cancer cells 22RV1; test: Experiment on inhibiting 22RV1 cell proliferation (CellTiter-Glo, 7 days); assay type: cell-based; details: Homo sapiens, 168 h, 22RV1 cells, 7 days incubation, cells with nM printed beside the value, read-out: IC50 values for inhibition of 22RVI cells
Outline: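 22RV1 cells at 2000/well in 1% charcoal-stripped-FBS phenol red-free medium, treated next day with compound for 7 days at 37 °C, 5% CO2. Viability by CellTiter-Glo luminescence; inhibition relative to DMSO vehicle, IC50 from dose-response fit.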

| SMILES | bioavailability [1] [%] | AUC(0-t) [1] [ng·h/mL] | DC50 [2] [nM] | IC50 [3] [nM] |
| --- | --- | --- | --- | --- |
| CC(C)(C(=O)Nc1ccc(C(F)(F)F)cc1Cl)n1cc(C#CC2CN(c3ccc4c(c3)C(=O)N(C3CCC(=O)NC3=O)C4=O)C2)cn1 (stereo not drawn) [Compound 11, N-(2-chloro-4-(trifluoromethyl)phenyl)-2-(4-((1-(2-(2,6-dioxopiperidin-3-yl)-1,3-dioxoisoindolin-5-yl)azetidin-3-yl)ethynyl)-1H-pyrazol-1-yl)-2-methylpropanamide] | 90.9 ± 2.4 | 16000 ± 431 | < 500 | < 50 |
| O=C1CCC(N2C(=O)c3ccc(N4CC(C#Cc5cnn(C6(C(=O)Nc7ccc(C(F)(F)F)cc7Cl)CCC6)c5)C4)cc3C2=O)C(=O)N1 (stereo not drawn) [Compound 14, N-(2-chloro-4-(trifluoromethyl)phenyl)-1-(4-((1-(2-(2,6-dioxopiperidin-3-yl)-1,3-dioxoisoindolin-5-yl)azetidin-3-yl)ethynyl)-1H-pyrazol-1-yl)cyclobutane-1-carboxamide] |  |  | < 500 | < 50 |
| CC(C)(C(=O)Nc1ccc(C(F)(F)F)cc1Cl)n1cc(C#CC2CN(c3cc4c(cc3F)C(=O)N(C3CCC(=O)NC3=O)C4=O)C2)cn1 (stereo not drawn) [Compound 15] | 73.2 ± 10 | 10200 ± 1460 | < 500 | < 100 |
| CC(C)(C(=O)Nc1ccc(C#N)c2ccccc12)n1cc(C#CC2CN(c3ccc4c(c3)C(=O)N(C3CCC(=O)NC3=O)C4=O)C2)cn1 (stereo not drawn) [Compound 21, N-(4-cyanonaphthalen-1-yl)-2-(4-((1-(2-(2,6-dioxopiperidin-3-yl)-1,3-dioxoisoindolin-5-yl)azetidin-3-yl)ethynyl)-1H-pyrazol-1-yl)-2-methylpropanamide] | 69.1 ± 12 | 15200 ± 2610 | < 500 | < 50 |
| CC(C)(C(=O)Nc1ccc(C(F)(F)F)cc1Br)n1cc(C#CC2CN(c3ccc4c(c3)C(=O)N(C3CCC(=O)NC3=O)C4=O)C2)cn1 (stereo not drawn) [Compound 28, N-(2-bromo-4-(trifluoromethyl)phenyl)-2-(4-((1-(2-(2,6-dioxopiperidin-3-yl)-1,3-dioxoisoindolin-5-yl)azetidin-3-yl)ethynyl)-1H-pyrazol-1-yl)-2-methylpropanamide] |  |  | < 500 | < 50 |
| CC(C)(C(=O)Nc1ccc(C#N)c(C2CC2)c1)n1cc(C#CC2CN(c3ccc4c(c3)C(=O)N(C3CCC(=O)NC3=O)C4=O)C2)cn1 (stereo not drawn) [Compound 29, N-(4-cyano-3-cyclopropylphenyl)-2-(4-((1-(2-(2,6-dioxopiperidin-3-yl)-1,3-dioxoisoindolin-5-yl)azetidin-3-yl)ethynyl)-1H-pyrazol-1-yl)-2-methylpropanamide] |  | 48700 ± 7060 | < 500 | < 100 |
| CC(C)(C(=O)Nc1ccc(C(F)(F)F)cc1C1CC1)n1cc(C#CC2CN(c3ccc4c(c3)C(=O)N(C3CCC(=O)NC3=O)C4=O)C2)cn1 (stereo not drawn) [Compound 30, N-(2-cyclopropyl-4-(trifluoromethyl)phenyl)-2-(4-((1-(2-(2,6-dioxopiperidin-3-yl)-1,3-dioxoisoindolin-5-yl)azetidin-3-yl)ethynyl)-1H-pyrazol-1-yl)-2-methylpropanamide] | 98.1 ± 6.6 | 22500 ± 1510 | < 500 | < 50 |

The remaining lines, values ahead:

| bioavailability [1] [%] | AUC(0-t) [1] [ng·h/mL] | DC50 [2] [nM] | IC50 [3] [nM] | SMILES |
| --- | --- | --- | --- | --- |
|  |  | < 500 | < 50 | CC(C)(C(=O)Nc1ccc(C#N)cc1C1CC1)n1cc(C#CC2CN(c3ccc4c(c3)C(=O)N(C3CCC(=O)NC3=O)C4=O)C2)cn1 (stereo not drawn) [Compound 39, N-(4-cyano-2-cyclopropylphenyl)-2-(4-((1-(2-(2,6-dioxopiperidin-3-yl)-1,3-dioxoisoindolin-5-yl)azetidin-3-yl)ethynyl)-1H-pyrazol-1-yl)-2-methylpropanamide] |
|  |  | < 500 | < 50 | CC(C)(C(=O)Nc1ccc(C#N)c2c1CCCC2)n1cc(C#CC2CN(c3ccc4c(c3)C(=O)N(C3CCC(=O)NC3=O)C4=O)C2)cn1 (stereo not drawn) [Compound 56, N-(4-cyano-5,6,7,8-tetrahydronaphthalen-1-yl)-2-(4-((1-(2-(2,6-dioxopiperidin-3-yl)-1,3-dioxoisoindolin-5-yl)azetidin-3-yl)ethynyl)-1H-pyrazol-1-yl)-2-methylpropanamide] |
| 52.4 ± 3.1 | 14000 ± 816 | < 500 | < 50 | CC#Cc1cc(C(F)(F)F)ccc1NC(=O)C(C)(C)n1cc(C#CC2CN(c3ccc4c(c3)C(=O)N(C3CCC(=O)NC3=O)C4=O)C2)cn1 (stereo not drawn) [Compound 118, 2-(4-((1-(2-(2,6-dioxopiperidin-3-yl)-1,3-dioxoisoindolin-5-yl)azetidin-3-yl)ethynyl)-1H-pyrazol-1-yl)-2-methyl-N-(2-(prop-1-yn-1-yl)-4-(trifluoromethyl)phenyl) propanamide] |
| 37.9 ± 2.2 | 12000 ± 711 | < 500 | < 50 | CC(C)(C(=O)Nc1ccc(C(F)(F)F)cc1-c1nccs1)n1cc(C#CC2CN(c3ccc4c(c3)C(=O)N(C3CCC(=O)NC3=O)C4=O)C2)cn1 (stereo not drawn) [Compound 155, 2-(4-((1-(2-(2,6-dioxopiperidin-3-yl)-1,3-dioxoisoindolin-5-yl)azetidin-3-yl)ethynyl)-1H-pyrazol-1-yl)-2-methyl-N-(2-(thiazol-2-yl)-4-(trifluoromethyl)phenyl) propanamide] |
|  |  | < 500 | < 50 | N#Cc1nn(C2(C(=O)Nc3ccc(C(F)(F)F)cc3Cl)CCC2)cc1C#CC1CN(c2ccc3c(c2)C(=O)N(C2CCC(=O)NC2=O)C3=O)C1 (stereo not drawn) [Compound 160, N-(2-chloro-4-(trifluoromethyl)phenyl)-1-(3-cyano-4-((1-(2-(2,6-dioxopiperidin-3-yl)-1,3-dioxoisoindolin-5-yl)azetidin-3-yl)ethynyl)-1H-pyrazol-1-yl)cyclobutane-1-carboxamide] |
|  |  | < 500 | < 50 | Cc1nn(C2(C(=O)Nc3ccc(C(F)(F)F)cc3Cl)CCC2)cc1C#CC1CN(c2ccc3c(c2)C(=O)N(C2CCC(=O)NC2=O)C3=O)C1 (stereo not drawn) [Compound 164, N-(2-chloro-4-(trifluoromethyl)phenyl)-1-(4-((1-(2-(2,6-dioxopiperidin-3-yl)-1,3-dioxoisoindolin-5-yl)azetidin-3-yl)ethynyl)-3-methyl-1H-pyrazol-1-yl)cyclobutane-1-carboxamide] |
